Tests used:
[1] = Bioavailability in rat; format: ADME, organism-based; conditions: in vivo
Coagulation factor X [2] = target: T1, Coagulation factor X (Homo sapiens, UniProt P00742); experiment: Tested in vitro for the inhibitory activity against Coagulation factor Xa
[3] = target: Vitamin K-dependent protein C (Homo sapiens, UniProt P04070); experiment: Tested in vitro for the inhibitory activity against activated protein C (APC)
Kallikrein-1 = Kallikrein-1 (Homo sapiens, UniProt P06870); experiment: Tested in vitro for the inhibitory activity against kallikrein
Chain of Kallikrein-1 (P06870 whole entry): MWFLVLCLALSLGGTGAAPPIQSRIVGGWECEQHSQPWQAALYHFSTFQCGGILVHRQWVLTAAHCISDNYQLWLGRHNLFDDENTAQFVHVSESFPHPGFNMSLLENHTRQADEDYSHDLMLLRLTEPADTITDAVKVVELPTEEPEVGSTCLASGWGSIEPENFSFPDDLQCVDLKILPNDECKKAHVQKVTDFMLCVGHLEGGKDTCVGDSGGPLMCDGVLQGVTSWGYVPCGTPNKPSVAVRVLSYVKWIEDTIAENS

Plasminogen = Plasminogen (Homo sapiens, UniProt P00747); experiment: Tested in vitro for the inhibitory activity against plasmin
Chain of Plasminogen (P00747 97-580 limits assumed): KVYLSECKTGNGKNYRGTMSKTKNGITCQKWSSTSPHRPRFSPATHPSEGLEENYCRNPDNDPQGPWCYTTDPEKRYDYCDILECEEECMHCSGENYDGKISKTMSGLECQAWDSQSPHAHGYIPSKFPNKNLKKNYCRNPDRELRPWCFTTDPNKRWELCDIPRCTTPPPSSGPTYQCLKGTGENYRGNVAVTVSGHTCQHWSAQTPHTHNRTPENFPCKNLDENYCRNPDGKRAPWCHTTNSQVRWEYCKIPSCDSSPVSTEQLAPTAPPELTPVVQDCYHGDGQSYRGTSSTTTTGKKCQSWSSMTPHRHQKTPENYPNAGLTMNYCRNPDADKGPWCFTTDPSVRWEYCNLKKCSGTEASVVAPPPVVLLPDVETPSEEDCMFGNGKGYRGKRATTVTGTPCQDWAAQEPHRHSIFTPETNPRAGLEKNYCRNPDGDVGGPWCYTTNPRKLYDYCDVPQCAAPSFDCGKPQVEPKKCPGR
Chain of Plasminogen (P00747 581-810 limits assumed): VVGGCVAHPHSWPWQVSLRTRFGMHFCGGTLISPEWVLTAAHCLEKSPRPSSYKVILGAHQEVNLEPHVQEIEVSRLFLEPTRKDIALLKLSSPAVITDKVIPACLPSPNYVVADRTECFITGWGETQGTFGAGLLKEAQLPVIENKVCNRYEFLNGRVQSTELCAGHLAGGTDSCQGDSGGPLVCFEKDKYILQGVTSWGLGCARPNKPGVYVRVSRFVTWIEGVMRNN

Oryctolagus cuniculus = experiment: Tested for inhibition of thrombosis in rabbit deep vein model after intravenous administration at dosage of 2 mg/kg; format: functional
[4] = target: Tissue-type plasminogen activator (Homo sapiens, UniProt P00750); experiment: Tested in vitro for the inhibitory activity against Tissue plasminogen activator (tissue plasminogen activator)
Chain of Tissue-type plasminogen activator (P00750 whole entry): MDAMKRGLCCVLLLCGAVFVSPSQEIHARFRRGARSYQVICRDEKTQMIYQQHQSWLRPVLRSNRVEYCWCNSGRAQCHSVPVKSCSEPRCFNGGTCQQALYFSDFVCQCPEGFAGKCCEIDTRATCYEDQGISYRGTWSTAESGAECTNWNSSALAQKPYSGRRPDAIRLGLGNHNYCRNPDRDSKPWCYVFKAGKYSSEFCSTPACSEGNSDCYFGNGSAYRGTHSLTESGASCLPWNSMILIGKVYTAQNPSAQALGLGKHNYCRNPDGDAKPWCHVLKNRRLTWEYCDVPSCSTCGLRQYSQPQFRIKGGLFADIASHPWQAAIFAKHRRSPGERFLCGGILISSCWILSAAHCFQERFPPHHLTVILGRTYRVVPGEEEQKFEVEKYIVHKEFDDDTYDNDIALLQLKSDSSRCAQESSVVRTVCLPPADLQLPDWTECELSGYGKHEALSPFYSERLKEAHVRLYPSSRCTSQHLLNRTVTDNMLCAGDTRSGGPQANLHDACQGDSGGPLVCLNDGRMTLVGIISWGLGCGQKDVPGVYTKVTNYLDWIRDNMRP

Prothrombin = Prothrombin (Homo sapiens, UniProt P00734); experiment: Tested in vitro for the inhibitory activity against thrombin
Serine protease 1 = Serine protease 1 (Homo sapiens, UniProt P07477); experiment: Tested in vitro for the inhibitory activity against trypsin
Chain of Serine protease 1 (P07477 whole entry): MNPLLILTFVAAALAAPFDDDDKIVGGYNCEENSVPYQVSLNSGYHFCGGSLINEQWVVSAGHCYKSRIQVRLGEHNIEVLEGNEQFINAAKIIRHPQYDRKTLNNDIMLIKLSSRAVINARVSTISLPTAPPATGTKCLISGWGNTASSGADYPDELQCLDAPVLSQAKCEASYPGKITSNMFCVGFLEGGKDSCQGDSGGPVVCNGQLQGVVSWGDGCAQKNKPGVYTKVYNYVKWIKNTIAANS

Coagulation factor X [5] = target: T1, Coagulation factor X; experiment: Tested in vitro for the inhibitory activity against Coagulation factor X
[6] = Bioavailability in rat was reported at the dose of 6 mg/kg in 25% PEG-300; format: ADME, organism-based; conditions: in vivo

T1 sequence (P00742 41-179 limits assumed): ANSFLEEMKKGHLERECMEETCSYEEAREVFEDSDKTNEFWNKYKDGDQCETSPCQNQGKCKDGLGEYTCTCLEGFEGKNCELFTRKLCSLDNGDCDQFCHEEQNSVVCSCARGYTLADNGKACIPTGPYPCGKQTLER
T1 sequence (P00742 235-488 limits assumed): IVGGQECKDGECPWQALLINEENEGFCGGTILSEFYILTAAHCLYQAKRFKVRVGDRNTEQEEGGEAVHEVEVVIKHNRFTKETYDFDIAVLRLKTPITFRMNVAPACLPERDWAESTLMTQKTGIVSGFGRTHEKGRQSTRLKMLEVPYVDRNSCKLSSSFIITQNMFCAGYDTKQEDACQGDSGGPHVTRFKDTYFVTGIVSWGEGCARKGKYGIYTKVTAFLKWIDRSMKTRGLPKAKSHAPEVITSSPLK
Chain of Vitamin K-dependent protein C (P04070 43-197 limits assumed): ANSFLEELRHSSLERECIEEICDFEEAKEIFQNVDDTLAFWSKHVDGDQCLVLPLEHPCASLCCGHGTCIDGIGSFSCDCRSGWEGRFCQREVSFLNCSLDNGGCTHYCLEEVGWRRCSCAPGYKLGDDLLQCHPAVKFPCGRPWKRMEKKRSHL
Chain of Vitamin K-dependent protein C (P04070 212-461 limits assumed): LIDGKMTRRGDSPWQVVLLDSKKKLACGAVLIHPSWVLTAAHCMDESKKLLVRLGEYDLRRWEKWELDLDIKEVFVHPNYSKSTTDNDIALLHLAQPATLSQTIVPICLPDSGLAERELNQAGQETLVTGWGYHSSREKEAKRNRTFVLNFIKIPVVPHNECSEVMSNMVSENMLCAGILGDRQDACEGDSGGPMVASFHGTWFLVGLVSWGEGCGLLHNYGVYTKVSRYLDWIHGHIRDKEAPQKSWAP

Row | IC50 (Coagulation factor X [2]) [nM] | Compound | further results
1 | – | N=C(N)c1cccc(Oc2ccc(C(=O)O)cc2NC(=O)c2ccc(-c3ccccc3S(N)(=O)=O)cc2)c1 | bioavailability [1]: 5.5%
2 | 7.7 | N=C(N)c1cccc(Oc2ccc(Cl)cc2C(=O)Nc2ccc(-c3ccccc3S(N)(=O)=O)cc2)c1 | –
3 | 2.1 | N=C(N)c1cccc(Oc2cc(Br)ccc2NC(=O)c2ccc(-c3ccccc3S(N)(=O)=O)cc2)c1 | –
4 | 7.7 | CC(=O)Nc1ccc(Oc2cccc(C(=N)N)c2)c(C(=O)Nc2ccc(-c3ccccc3S(N)(=O)=O)cc2)c1 | –
5 | 7.8 | N=C(N)c1cccc(OCCN(Cc2ccoc2)C(=O)c2ccc(-c3ccccc3S(N)(=O)=O)cc2)c1 | –
6 | 623 | Nc1nccc2ccc(OCC(c3ccccc3)N3Cc4cc(-c5ccccc5S(N)(=O)=O)ccc4C3=O)cc12 (stereo not given) | –
7 | 226 | Nc1nccc2ccc(OCC(Cc3ccccc3)N3Cc4cc(-c5ccccc5S(N)(=O)=O)ccc4C3=O)cc12 (stereo not given) | –
8 | 14 | N=C(N)c1cccc(OCCN(Cc2ccccc2)C(=O)c2ccc(-c3ccccc3S(N)(=O)=O)cc2)c1 | –
9 | 3.6 | N=C(N)c1cccc(Oc2ccccc2NC(=O)c2ccc(-c3ccccc3S(N)(=O)=O)cc2)c1 | IC50 [3]: > 181000 nM; IC50 (Kallikrein-1): 250 nM; IC50 (Plasminogen): 43000 nM; inhibition in vivo at 2 mg/kg (Oryctolagus cuniculus): 41%; IC50 [4]: 18000 nM; IC50 (Prothrombin): > 11000 nM; IC50 (Serine protease 1): 970 nM
10 | 4.8 | N=C(N)c1cccc(Oc2cc([N+](=O)[O-])ccc2C(=O)Nc2ccc(-c3ccccc3S(N)(=O)=O)cc2)c1 | bioavailability [1]: 0.3%
11 | 19 | N=C(N)c1cccc(Oc2cc(N)ccc2C(=O)Nc2ccc(-c3ccccc3S(N)(=O)=O)cc2)c1 | –
12 | 3.4 | N=C(N)c1cccc(OCC(NC(=O)c2ccc(-c3ccccc3S(N)(=O)=O)cc2)c2ccccc2)c1 (stereo not given) | –
13 | 4.4 | N=C(N)c1cccc(Oc2ccc(Br)cc2C(=O)Nc2ccc(-c3ccccc3S(N)(=O)=O)cc2)c1 | –
14 | 7.3 | N=C(N)c1cccc(Oc2ccccc2C(=O)Nc2ccc(-c3ccccc3S(N)(=O)=O)cc2)c1 | –
15 | 5.6 | N=C(N)c1cccc(OCC(Cc2ccccc2)NC(=O)c2ccc(-c3ccccc3S(N)(=O)=O)cc2)c1 (stereo not given) | –
16 | 7.5 | N=C(N)c1cccc(OCCNC(=O)c2ccc(-c3ccccc3S(N)(=O)=O)cc2)c1 | IC50 [3]: 3700 nM; IC50 (Kallikrein-1): 2100 nM; IC50 (Plasminogen): 13000 nM; IC50 [4]: 109000 nM; IC50 (Prothrombin): 321000 nM; IC50 (Serine protease 1): 1200 nM
17 | 1320 | Nc1nccc2ccc(Oc3ccc(F)cc3NC(=O)c3ccc(-c4ccccc4S(N)(=O)=O)cc3)cc12 | –
18 | 3.6 | N=C(N)c1cccc(OCCN2Cc3cc(-c4ccccc4S(N)(=O)=O)ccc3C2=O)c1 | –
19 | 1.2 | N=C(N)c1cccc(Oc2cc(Br)ccc2C(=O)Nc2ccc(-c3ccccc3S(N)(=O)=O)cc2)c1 | –
20 | 1.5 | N=C(N)c1cccc(Oc2cc(Cl)ccc2C(=O)Nc2ccc(-c3ccccc3S(N)(=O)=O)cc2)c1 | –
21 | 1.6 | COc1ccc(NC(=O)c2ccc(-c3ccccc3S(N)(=O)=O)cc2)c(Oc2cccc(C(=N)N)c2)c1 | –
22 | 9.9 | Cc1ccc(NC(=O)c2ccc(-c3ccccc3S(N)(=O)=O)cc2)c(Oc2cccc(C(=N)N)c2)c1 | –
23 | 25 | CC(COc1ccc2ccnc(N)c2c1)N1Cc2cc(-c3ccccc3S(N)(=O)=O)ccc2C1=O (stereo not given) | –

Row | IC50 (Coagulation factor X [2]) [nM] | Compound | further results
24 | 10 | CN(C)c1ccc(Oc2cccc(C(=N)N)c2)c(C(=O)Nc2ccc(-c3ccccc3S(N)(=O)=O)cc2)c1 | –
25 | – | N=C(N)c1cccc(Oc2ccc([N+](=O)[O-])cc2C(=O)Nc2ccc(-c3ccccc3S(N)(=O)=O)cc2)c1 | IC50 (Coagulation factor X [5]): 1.9 nM
26 | 2.5 | N=C(N)c1cccc(Oc2ccc(C(F)(F)F)cc2NC(=O)c2ccc(-c3ccccc3S(N)(=O)=O)cc2)c1 | –
27 | 12 | N=C(N)c1cccc(Oc2ccc(N)cc2C(=O)Nc2ccc(-c3ccccc3S(N)(=O)=O)cc2)c1 | –
28 | 1.6 | N=C(N)c1cccc(Oc2ccc(Br)cc2NC(=O)c2ccc(-c3ccccc3S(N)(=O)=O)cc2)c1 | –
29 | 6060 | CS(=O)(=O)c1ccc(Oc2ccc3ccnc(N)c3c2)c(NC(=O)c2ccc(-c3ccccc3S(N)(=O)=O)cc2)c1 | –
30 | 61 | CC(=O)Nc1ccc(C(=O)Nc2ccc(-c3ccccc3S(N)(=O)=O)cc2)c(Oc2cccc(C(=N)N)c2)c1 | –
31 | 22 | Nc1nccc2ccc(OCCN3Cc4cc(-c5ccccc5S(N)(=O)=O)ccc4C3=O)cc12 | bioavailability [6]: < 5%
32 | 5.4 | CS(=O)(=O)Nc1ccc(Oc2cccc(C(=N)N)c2)c(C(=O)Nc2ccc(-c3ccccc3S(N)(=O)=O)cc2)c1 | –
33 | 34 | N=C(N)c1cccc(OCCN(CC(=O)O)C(=O)c2ccc(-c3ccccc3S(N)(=O)=O)cc2)c1 | –
34 | 16 | CC(COc1cccc(C(=N)N)c1)NC(=O)c1ccc(-c2ccccc2S(N)(=O)=O)cc1 (stereo not given) | –
35 | 1810 | Nc1nccc2ccc(Oc3ccc(C(F)(F)F)cc3NC(=O)c3ccc(-c4ccccc4S(N)(=O)=O)cc3)cc12 | –
36 | 11 | N=C(N)c1cccc(OCCN(Cc2cccnc2)C(=O)c2ccc(-c3ccccc3S(N)(=O)=O)cc2)c1 | –
37 | 1.6 | N=C(N)c1cccc(Oc2cc(Cl)ccc2NC(=O)c2ccc(-c3ccccc3S(N)(=O)=O)cc2)c1 | –
38 | 4.5 | N=C(N)c1cccc(Oc2ccc(F)cc2NC(=O)c2ccc(-c3ccccc3S(N)(=O)=O)cc2)c1 | –
39 | 3.9 | N=C(N)c1cccc(Oc2cc(O)ccc2NC(=O)c2ccc(-c3ccccc3S(N)(=O)=O)cc2)c1 | –
40 | 646 | Nc1nccc2ccc(Oc3ccccc3NC(=O)c3ccc(-c4ccccc4S(N)(=O)=O)cc3)cc12 | –
41 | 13 | COC(=O)CN(CCOc1cccc(C(=N)N)c1)C(=O)c1ccc(-c2ccccc2S(N)(=O)=O)cc1 | –
42 | 16 | CN(C)c1ccc(C(=O)Nc2ccc(-c3ccccc3S(N)(=O)=O)cc2)c(Oc2cccc(C(=N)N)c2)c1 | –
43 | 2.5 | COC(=O)c1ccc(Oc2cccc(C(=N)N)c2)c(NC(=O)c2ccc(-c3ccccc3S(N)(=O)=O)cc2)c1 | –
44 | 12 | CNc1ccc(C(=O)Nc2ccc(-c3ccccc3S(N)(=O)=O)cc2)c(Oc2cccc(C(=N)N)c2)c1 | –
45 | 1.8 | CS(=O)(=O)c1ccc(Oc2cccc(C(=N)N)c2)c(NC(=O)c2ccc(-c3ccccc3S(N)(=O)=O)cc2)c1 | –

From ChEMBL document CHEMBL1135152, “Design, synthesis, and SAR of monobenzamidines and aminoisoquinolines as factor Xa inhibitors” (Bioorg Med Chem Lett, 2002)
